The text below walks through data of article PMC8704648 (Pharmaceutics, 2021).

For the series the following is noted: TG, oxidizing atmosphere.

For `COc1ccc2cc([C@H](C)C(=O)O)ccc2c1` [Naproxen, (+)-(S)-2-(6-Methoxynaphthalen-2-yl)propanoic acid], the “Tonset, the onset of the thermal degradation” value came to 249.9 °C.
